The record followed here is US11541063B2, “Compositions and products for use in the treatment of bone fractures and defects” (priority 2014, dated 2023).

For this experiment, the system named is MC3T3-E1 cells. Particulars: alendronate only (0 nM Stanolone), MC3T3 cells stimulated for 10 days.

Like-named read-outs stand apart in the source and are kept apart here.

Procedure: MC3T3-E1 (ECACC, Acc. No. 99072810) were cultured in α-MEM (Invitrogen, Carlsbad, Calif.) supplemented with 100 U/ml penicillin, 100 ug/ml streptomycin (Invitrogen, Carlsbad, Calif.) and 5% fetal bovine serum (Hyclone, GE Healthcare). Cells were grown under standard conditions (37° C., 5% CO2 and 95% humidity). MC3T3-E1 cells were seeded at a density of 26000 cells/cm2 and seeding of the cells was considered as the day 0 timepoint. On day 1 post-plating, the medium of the MC3T3-E1 cells was replaced with osteogenic medium (the above-mentioned media supplemented with 50 μg/ml Ascorbic Acid (Sigma)), 10 nM β-glycerol phosphate (Sigma) and on day 3 post-plating, hormones or vehicle (0.1% ethanol) were added.
Cells were lysed for 10 minutes with lysisbuffer (100 mM Potassium phosphate, 0.2% Triton X-100, pH 7.8 containing protease inhibitor cocktail (Roche)). […] The luminescence (1 second) was measured with a Filtermax F5 (Molecular Devices).
The acidic phosphatase activity of the cells was determined by adding freshly prepared p-NPP buffer (4-nitrophenyl phosphate (Sigma) in 0.1 M NaAc+0.1% Triton X-100, pH5.5) to the cell lysates and incubated for 1.5 hrs at 37° C. and 5% CO2. […] The absorbance was measured at 405 nm with a Filtermax F5 (Molecular Devices). […]

For the compound `NCCCC(O)(P(=O)(O)O)P(=O)(O)O` [alendronate], the ALP/AP activity result is “decreases” (50 μM); “small increase” (2 and 10 μM).
